The values below come from ChEMBL document CHEMBL6096736, “Development of a Highly Selective Ferroptosis Inducer Targeting GPX4 with 2-Ethynylthiazole-4-carboxamide as Electrophilic Warhead” (J Med Chem, 2025).

Molecules are shown by their SMILES. Active and inactive are the calls of the source. No cut-off for these calls is given here.

For one test, the system named is HT-1080. Nature of the test: Cytotoxicity against human HT-1080 cells assessed as cell viability incubated for 24 hrs by CCK-8 assay. As to conditions: HT-1080, 24 h.
Consider `C#Cc1nc(C(=O)N(c2ccc(-c3cnco3)cc2)C(C(=O)NC(C)(C)C)c2cncs2)cs1` (stereo not given), for which the IC50 was 500 nM.

For `C#Cc1nc(C(=O)N(c2ccc(-n3ccnc3)cc2)C(C(=O)NC(C)(C)C)c2csc3ccccc23)cs1` (stereo not given), the IC50 was 345 nM.

Take `C#Cc1nc(C(=O)N(c2ccc(-c3cnco3)cc2)C(C(=O)NCc2ccccc2)c2csc3ccccc23)cs1` (stereo not given): the IC50 was found to be 32 nM.

As for `C#Cc1nc(C(=O)N(c2ccc(-c3cnco3)cc2)C(C(=O)NC(C)(C)C)c2cc[nH]n2)cs1` (stereo not given), the IC50 turned out to be 375 nM.

With `C#CC(=O)N(c1ccc(-c2cnco2)cc1)C(C(=O)NCCc1ccccc1)c1csc2ccccc12` (stereo not given), the half-inhibitory concentration (IC50) was found to be 425 nM.

In the case of `C#Cc1nc(C(=O)N(c2ccc(-c3cnco3)cc2)[C@H](C(=O)NC(C)(C)C)c2csc3ccccc23)cs1`, the half-maximal inhibitory concentration (IC50) amounted to 12 nM.

As to `O=C(NCCc1ccccc1)C(c1csc2ccccc12)N(C(=O)CCl)c1ccc(-c2cnco2)cc1` (stereo not given), the IC50 amounted to 121 nM.

Turning to `C#Cc1nc(C(=O)N(c2ccc(C(F)(F)F)cc2)C(C(=O)NC(C)(C)C)c2csc3ccccc23)cs1` (stereo not given), the half-maximal inhibitory concentration (IC50) was 27 nM.

`C#Cc1nc(C(=O)N(c2ccc(-c3cnco3)cc2)C(C(=O)NC(C)(C)C)c2ccsc2)cs1` (stereo not given): the IC50 came to 207 nM.

As to `C#Cc1nc(C(=O)N(c2ccc(-c3cnco3)cc2)C(C(=O)NC2CCCCC2)c2csc3ccccc23)cs1` (stereo not given), the half-inhibitory concentration (IC50) was 17 nM.

Regarding `Cc1onc(C(=O)N(c2ccc(-c3cnco3)cc2)C(C(=O)NCCc2ccccc2)c2csc3ccccc23)c1[N+](=O)[O-]` (stereo not given), the 50% inhibitory concentration (IC50) was greater than 5000 nM.

In the case of `C#Cc1nc(C(=O)N(c2ccc(-c3cnco3)cc2)C(C(=O)NC(C)(C)C)c2ccc[nH]2)cs1` (stereo not given), the IC50 came out at 120 nM.

As for `C#Cc1nc(C(=O)N(c2ccc(-c3cnco3)cc2)C(C(=O)NC(C)(C)C)c2ccncn2)cs1` (stereo not given), the concentration for half-maximal inhibition (IC50) came out at 354 nM.

A further test relates to HT-1080. The test is described as follows: Induction of ferroptosis in human HT-1080 cells assessed as reduction in cell viability incubated for 24 hrs in presence of Fer-1 by CCK-8 assay. As to conditions: HT-1080, 24 h.
Regarding `C#Cc1nc(C(=O)N(c2ccc(-c3cnco3)cc2)C(C(=O)NC(C)(C)C)c2cncs2)cs1` (stereo not given), the IC50 amounted to 9430 nM.

`C#Cc1nc(C(=O)N(c2ccc(-n3ccnc3)cc2)C(C(=O)NC(C)(C)C)c2csc3ccccc23)cs1` (stereo not given): the IC50 stood at 4760 nM.

Regarding `C#Cc1nc(C(=O)N(c2ccc(-c3cnco3)cc2)C(C(=O)NCc2ccccc2)c2csc3ccccc23)cs1` (stereo not given), the IC50 was 6120 nM.

Consider `C#Cc1nc(C(=O)N(c2ccc(-c3cnco3)cc2)C(C(=O)NC(C)(C)C)c2cc[nH]n2)cs1` (stereo not given), for which the half-maximal inhibitory concentration (IC50) is 7160 nM.

Regarding `C#CC(=O)N(c1ccc(-c2cnco2)cc1)C(C(=O)NCCc1ccccc1)c1csc2ccccc12` (stereo not given), the half-maximal inhibitory concentration (IC50) was 4750 nM.

Turning to `C#Cc1nc(C(=O)N(c2ccc(-c3cnco3)cc2)[C@H](C(=O)NC(C)(C)C)c2csc3ccccc23)cs1`, the IC50 turned out to be 11700 nM.

As to `O=C(NCCc1ccccc1)C(c1csc2ccccc12)N(C(=O)CCl)c1ccc(-c2cnco2)cc1` (stereo not given), the IC50 was found to be 4600 nM.

Consider `C#Cc1nc(C(=O)N(c2ccc(C(F)(F)F)cc2)C(C(=O)NC(C)(C)C)c2csc3ccccc23)cs1` (stereo not given), for which the IC50 is 8410 nM.

On to `C#Cc1nc(C(=O)N(c2ccc(-c3cnco3)cc2)C(C(=O)NC(C)(C)C)c2ccsc2)cs1` (stereo not given), for which the concentration for half-maximal inhibition (IC50) stood at 6340 nM.

For `C#Cc1nc(C(=O)N(c2ccc(-c3cnco3)cc2)C(C(=O)NC2CCCCC2)c2csc3ccccc23)cs1` (stereo not given), the IC50 is 3870 nM.

Regarding `C#Cc1nc(C(=O)N(c2ccc(-c3cnco3)cc2)C(C(=O)NC(C)(C)C)c2ccc[nH]2)cs1` (stereo not given), the half-maximal inhibitory concentration (IC50) was 7410 nM.

Regarding `C#Cc1nc(C(=O)N(c2ccc(-c3cnco3)cc2)C(C(=O)NC(C)(C)C)c2ccncn2)cs1` (stereo not given), the 50% inhibitory concentration (IC50) was found to be 8160 nM.

Test system in another test: not listed separately
The test is described as follows: Selectivity index, ratio of IC50 for cytotoxicity against human HT-1080 cells assessed as cell viability incubated for 24 hrs by CCK-8 assay to IC50 for induction of ferroptosis in human HT-1080 cells assessed as reduction in cell viability incubated for 24 hrs […] by CCK-8 assay.
Details: not given
Format: functional.
Take `C#Cc1nc(C(=O)N(c2ccc(-c3cnco3)cc2)C(C(=O)NC(C)(C)C)c2cncs2)cs1` (stereo not given): the “Ratio IC50” value was 17.

`C#Cc1nc(C(=O)N(c2ccc(-n3ccnc3)cc2)C(C(=O)NC(C)(C)C)c2csc3ccccc23)cs1` (stereo not given): the “Ratio IC50” value stood at 14.

Turning to `C#Cc1nc(C(=O)N(c2ccc(-c3cnco3)cc2)C(C(=O)NCc2ccccc2)c2csc3ccccc23)cs1` (stereo not given), the “Ratio IC50” value amounted to 191.

Take `C#Cc1nc(C(=O)N(c2ccc(-c3cnco3)cc2)C(C(=O)NC(C)(C)C)c2cc[nH]n2)cs1` (stereo not given): the “Ratio IC50” value came out at 19.

Regarding `C#CC(=O)N(c1ccc(-c2cnco2)cc1)C(C(=O)NCCc1ccccc1)c1csc2ccccc12` (stereo not given), the “Ratio IC50” value came out at 11.

With `O=C(NCCc1ccccc1)C(c1csc2ccccc12)N(C(=O)CCl)c1ccc(-c2cnco2)cc1` (stereo not given), the “Ratio IC50” value worked out at 38.

With `C#Cc1nc(C(=O)N(c2ccc(C(F)(F)F)cc2)C(C(=O)NC(C)(C)C)c2csc3ccccc23)cs1` (stereo not given), the “Ratio IC50” value is recorded as 311.

Consider `C#Cc1nc(C(=O)N(c2ccc(-c3cnco3)cc2)C(C(=O)NC(C)(C)C)c2ccsc2)cs1` (stereo not given), for which the “Ratio IC50” value was found to be 30.6.

For `C#Cc1nc(C(=O)N(c2ccc(-c3cnco3)cc2)C(C(=O)NC2CCCCC2)c2csc3ccccc23)cs1` (stereo not given), the “Ratio IC50” value was 228.

Take `C#Cc1nc(C(=O)N(c2ccc(-c3cnco3)cc2)C(C(=O)NC(C)(C)C)c2ccc[nH]2)cs1` (stereo not given): the “Ratio IC50” value is on record as 61.7.

As to `C#Cc1nc(C(=O)N(c2ccc(-c3cnco3)cc2)C(C(=O)NC(C)(C)C)c2ccncn2)cs1` (stereo not given), the “Ratio IC50” value was 23.

A further test deals with T1, Phospholipid hydroperoxide glutathione peroxidase GPX4 (Homo sapiens, UniProt P36969).
T1 sequence (P36969 whole entry): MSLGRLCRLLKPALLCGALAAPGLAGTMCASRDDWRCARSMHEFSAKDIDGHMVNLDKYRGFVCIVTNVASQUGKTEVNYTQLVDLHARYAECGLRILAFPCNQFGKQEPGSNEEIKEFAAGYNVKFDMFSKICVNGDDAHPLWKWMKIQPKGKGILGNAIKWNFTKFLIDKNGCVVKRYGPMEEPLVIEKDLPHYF
The test is described as follows: Binding affinity to human GPX4 assessed as dissociation constant by MST assay.
Details: not given
In the case of `COC(=O)c1ccc([C@H]2c3[nH]c4ccccc4c3C[C@H](C(=O)OC)N2C(=O)CCl)cc1`, the Kd was 43.7 nM.

As to `O=C(NCCc1ccccc1)C(c1csc2ccccc12)N(C(=O)CCl)c1ccc(-c2cnco2)cc1` (stereo not given), the Kd came out at 24.7 nM.

For a further test, the system named is HT-1080. The test is described as follows: Induction of morphological changes in human HT-1080 cells assessed as appearance of round shaped mitochondria by TEM analysis. Format: functional, cell-based.
Details: not given
In the case of `O=C(NCCc1ccccc1)C(c1csc2ccccc12)N(C(=O)CCl)c1ccc(-c2cnco2)cc1` (stereo not given), the result was Active.

For a further test, the system named is HT-1080. The test is described as follows: Induction of morphological changes in human HT-1080 cells assessed as […] of mitochondria cristas by TEM analysis. Format: functional, cell-based.
Details: not given
On to `O=C(NCCc1ccccc1)C(c1csc2ccccc12)N(C(=O)CCl)c1ccc(-c2cnco2)cc1` (stereo not given), for which the outcome was Active.

A further test concerns HT-1080. The test is described as follows: Induction of ferroptosis in human HT-1080 cells assessed as increase in cellular ROS level at 0.5 uM incubated for 3 hrs by DCFH-DA staining based flow cytometry analysis. Format: functional, cell-based.
Details: not given
Turning to `COC(=O)c1ccc([C@H]2c3[nH]c4ccccc4c3C[C@H](C(=O)OC)N2C(=O)CCl)cc1`, the outcome was Active.

In a further test the test system is HT-1080. The test is described as follows: Induction of ferroptosis in human HT-1080 cells assessed as increase in cellular LPO level at 0.5 uM incubated for 3 hrs by BIODPY-C11 probe based flow cytometry analysis. Format: functional, cell-based.
Details: not given
For the compound `COC(=O)c1ccc([C@H]2c3[nH]c4ccccc4c3C[C@H](C(=O)OC)N2C(=O)CCl)cc1`, the outcome was Active.

For the next test, the system named is HT-1080. The test is described as follows: Induction of ferroptosis in human HT-1080 cells assessed as increase in cellular ROS level at 0.1 uM incubated for 3 hrs by DCFH-DA staining based flow cytometry analysis. Format: functional, cell-based.
Details: not given
As for `O=C(NCCc1ccccc1)C(c1csc2ccccc12)N(C(=O)CCl)c1ccc(-c2cnco2)cc1` (stereo not given), the outcome was Active.

A further test deals with HT-1080. The test is described as follows: Induction of ferroptosis in human HT-1080 cells assessed as increase in cellular LPO level at 0.1 uM incubated for 3 hrs by BIODPY-C11 probe based flow cytometry analysis. Format: functional, cell-based.
Details: not given
Take `O=C(NCCc1ccccc1)C(c1csc2ccccc12)N(C(=O)CCl)c1ccc(-c2cnco2)cc1` (stereo not given): the outcome was Active.

The subject of a further test is HT-1080. The test is described as follows: Induction of ferroptosis in human HT-1080 cells assessed as increase in cellular MDA level at 0.1 uM incubated for 6 hrs. Format: functional, cell-based.
Details: not given
`O=C(NCCc1ccccc1)C(c1csc2ccccc12)N(C(=O)CCl)c1ccc(-c2cnco2)cc1` (stereo not given): the outcome was Active.
